Patent US20090093069A1, “Topiramate Immunoassays” (ARK Diagnostics, Inc., priority 2007, published 2009)
Like-named read-outs stand apart in the source and are kept apart here.

Assays:
serum proteins = conditions: cited from earlier work
[1] = cited from earlier work; for mean topiramate serum concentration: Lhatoo et al. (2000); for topiramate concentrations: May et al. (2002)
[2] = cited from earlier work
[3] = system: antibodies raised with immunogens (10-KLH, 12-KLH, 12-L-KLH, 19-KLH, 22-KLH and 25-KLH); experiment: Enzyme-based assay format, reactivity of antibodies raised with the immunogens; format: binding
Description: All the prepared haptens have utility for KLH and G6PDH bio-conjugation. immunogens (10-KLH, 12-KLH, 12-L-KLH, 19-KLH, 22-KLH and 25-KLH) were used to raise antibodies.

[4] = system: rabbit polyclonal antibody #11341; experiment: ARK homogeneous enzyme immunoassay, topiramate calibration curve on HITACHI 917; format: binding; conditions: conjugate 12-G6PDH
Description: Rabbit polyclonal antibody […] was used to generate a calibration curve, and evaluate assay precision, accuracy and specificity. The antibody was added into the antibody diluent to prepare the antibody reagent. The antibody reagent consists of antibody as prepared above, buffer, stabilizers, preservatives, and the substrates for the enzyme conjugate NAD and glucose 6 phosphate. Enzyme conjugate comprising compound (12-G6PDH) G6PDH was added into the conjugate reagent to prepare the enzyme conjugate reagent. The enzyme conjugate reagent consists of the conjugate, buffer, stabilizers and preservatives. Enzyme conjugate (12-G6PDH) was used with rabbit polyclonal antibody #11341 in examples below. This technique is generally applicable to produce polyclonal antibodies to diacetonefructose derivatives and assess their utility.
The diacetonefructose derivative antibodies and enzyme conjugates may be advantageously used in a homogeneous assay format to detect topiramate in samples. An enzyme immunoassay or ARK Assay, which is a homogeneous enzyme immunoassay experiment, is performed to test the polyclonal antibodies prepared as in Example 17. The ARK Assay for topiramate is conducted using a liquid, ready-to-use, two-reagent kit. A clinical chemistry analyzer useful to set up the assay is HITACHI 917. The HITACHI 917 is an automated biochemistry analyser used by medical laboratories to process biological fluid specimens, such as urine, cerebrospinal fluid, and most commonly, blood. Manufactured by Boehringer Mannheim, the HITACHI 917 is a commonly used routine chemical bichromatic analyzer. Topiramate containing sample is incubated with antibody reagent followed by the addition of the enzyme conjugate reagent. The enzyme conjugate activity decreases upon binding to the antibody. The enzyme conjugate, which is not bound to the antibody, catalyzes the oxidation of glucose 6-phosphate (G6P). The oxidation of G6P is coupled with the reduction of NAD^+ to NADH, which can be measured at 340 nm. The change in the absorbance at 340 nm can be measured spectrophotometrically. The topiramate concentration in a specimen can be measured in terms of G6PDH activity. The increase in the rate at 340 nm is due to the formation of NADH and is proportional to the enzyme conjugate activity. An assay calibration curve is generated using topiramate spiked into negative calibrator matrix (See Example 19 below). The assay rate increases with increasing the concentration of drug in the sample.
Topiramate was dissolved in methanol to give a stock solution of 1000 μg/mL. Pooled human serum was aliquoted in 10 mL portions. Topiramate stock solution was added to the aliquots of human serum in preparing a series of known concentrations of topiramate calibrators ranging from 0 to 60 μg/mL. Similarly, Quality Control samples were prepared (2.0, 10.0 and 40.0 μg/mL). Antibody Reagent was prepared by adding antibody […] to antibody/substrate diluent. The antibody/substrate reagent was assayed with Enzyme Conjugate Reagent (12-G6PDH). Calibration curves were generated on the HITACHI 917 automated clinical chemistry analyzer, as described in Example 18 by assaying each level in duplicate.

[5] = system: patients with drug refractory (mostly partial) epilepsy; conditions: Stephen et al. (2000), 170 patients, cited from earlier work
[6] = dose escalation add-on studies, morning serum concentrations

Question: With CC1(C)O[C@@H]2[C@@H](CO[C@@]3(COS(N)(=O)=O)OC(C)(C)O[C@@H]23)O1 [Topiramate, 2,3:4,5-bis-O-(1-methylethylidene)-β-D-fructopyranose sulfamate] as the compound, how does the “bound to serum proteins” value (serum proteins) read?
Answer: The value was 15%.

Question: And the “serum concentrations at which optimal response is most likely” value ([1]; Christensen et al. (2003), concentration-controlled trial)?
Answer: Its value is 2 to 10 µg/mL.

Question: What about the serum topiramate concentrations ([1]; Johannessen et al. (2003), patients treated with therapeutic doses, most studies) of the same compound?
Answer: Its serum topiramate concentrations is 5 to 20 mg/L.

Question: And the “mean topiramate serum concentration” value ([1]; patients in whom topiramate was stopped because of adverse effects)?
Answer: Its value is 6 mg/L.

Question: What about the “mean topiramate serum concentration” value ([1]; responders) of the same compound?
Answer: The value was 7 mg/L.

Question: What about the “mean topiramate serum concentration” value ([1]; seizure-free patients) of the same compound?
Answer: Its value is 9 mg/L.

Question: What about the topiramate concentrations ([1]; considerably higher doses (up to 2000 mg/day)) of the same compound?
Answer: Its topiramate concentrations is no more than 27 mg/L.

Question: And the topiramate concentrations ([1]; doses of 125-400 mg in addition to other AEDs)?
Answer: The topiramate concentrations was 2.4 to 8 mg/L.

Question: What about the “serum topiramate concentrations in patients with improvement (trend)” value ([1]; Penovich et al. (1997), compared with those without seizure reduction) of the same compound?
Answer: Its value is greater than 10 mg/L.

Question: What about the systemic topiramate concentrations ([1]; considerably higher doses, up to 2000 mg) of the same compound?
Answer: The systemic topiramate concentrations was no more than 80 µmol·L.

Question: What about the “serum concentrations at which a reduction in seizure control was seen” value [1, 6] of the same compound?
Answer: The value was “greater than 75 μmol/L”.

Question: What about the “serum concentrations with significant increase in side effects” value [1, 6] of the same compound?
Answer: Its value is greater than 60 µM.

Question: What about the “change of serum topiramate concentrations” value ([2]; clearance decreased by propranolol, amitriptyline, lithium, and sumatriptan) of the same compound?
Answer: Its value is “slightly increased”.

Question: And the Tmax ([2]; following oral ingestion)?
Answer: The Tmax was 2 to 4 h.

Question: And the bioavailability ([2]; following oral ingestion)?
Answer: Its bioavailability is 81-95%.

Question: And the Vd ([2]; human, in vivo)?
Answer: The Vd was 0.6 to 1 L/kg.

Question: And the “fraction of the dose metabolized” value ([2]; human, in vivo)?
Answer: Its value is “Approximately 50%”.

Question: What about the serum half-life ([2]; human, in vivo) of the same compound?
Answer: The serum half-life was 20 to 30 h.

Question: What about the half-life ([2]; patients co-prescribed enzyme-inducing AEDs) of the same compound?
Answer: Its half-life is “about 12 h”.

Question: What about the “lowering of topiramate concentrations” value ([2]; with valproic acid) of the same compound?
Answer: Its value is 10-15%.

Question: What about the “reactivity of the antibodies” value [3] of the same compound?
Answer: Its value is “good reactivity”.

Question: And the “Reaction Rate (mA/min) Average of Duplicates” value (“Reaction Rate (mA/min) Average” for short) ([4]; topiramate calibrator 3.5 μg/mL in human serum)?
Answer: The value was 406.0 mA/min.

Question: And the “Reaction Rate (mA/min) Average” value ([4]; topiramate calibrator 7.5 μg/mL in human serum)?
Answer: The value was 442.4 mA/min.

Question: And the “Reaction Rate (mA/min) Average” value ([4]; topiramate calibrator 15.0 μg/mL in human serum)?
Answer: Its value is 478.3 mA/min.

Question: What about the “Reaction Rate (mA/min) Average” value ([4]; topiramate calibrator 30.0 μg/mL in human serum) of the same compound?
Answer: Its value is 511.6 mA/min.

Question: And the “Reaction Rate (mA/min) Average” value ([4]; topiramate calibrator 60.0 μg/mL in human serum)?
Answer: The value was 542.4 mA/min.

Question: And the “patients with favorable response” value ([5]; wide range of doses and serum concentrations)?
Answer: Its value is 70%.

Question: And the patients becoming seizure-free [5]?
Answer: Its patients becoming seizure-free is 23%.
